In patent US8431595B2, “Furanopyridine cannabinoid compounds and related methods of use” (The University of Tennessee Research Foundation, priority 2009, dated 2013):

Tested on: glioblastoma brain cancer cell line LN-229
Test: Cytotoxicity assay (CCK8 viability)
Assay type: cell-based
Details: Homo sapiens, LN-229 cells, 48 hrs
Experimental: Cytoxocity assay: Cells are seeded on a 96 well polystyrene plate in full serum media at a density of 75,000 cells per milliliter, 100 μL per well. Plates are incubated at 37° C. and 5% CO2 for 24 hours to allow cell attachment. Drug solutions are prepared in DMSO at 100× concentration and mixed 1:100 in 1% FBS media to yield the desired concentration. Drug-media mixtures are vortexed immediately prior to administration to cells. […] of Cell Counting Kit 8 (CCK8, Dojindo# CK04-11) is added to each well to colormetrically assess viability. After 2-4 hours of incubation with the CCK8 dye, absorbance is read at 450 nm by a BioTek Synergy 2 plate reader.
The cytotoxicity of selected compounds against the glioblastoma brain cancer cell line LN-229 is depicted in Table 1.

CCCCCCC(C)(C)c1cc(O)c2c(-c3ccccc3)coc2n1 [Compound 4c, 6-(2-Methyloctan-2-yl)-3-phenylfuro[2,3-b]pyridin-4-ol]
EC50: 33.6 µM
